Results published in patent publication US8168651B2, “Protein kinase modulators” (Cylene Pharmaceuticals, Inc., priority 2008, dated 2012).

What was measured:
Assay in all cases: Standardized radiometric kinase assays, percentage of activity at 0.5 μM;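 further: Read-out is ³³P-labelled substrate protein phosphorylated by each kinase, captured on filters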
[1] = biological target: each individual kinase of the panel (Homo sapiens, UniProt P05771)
[2] = biological target: each individual kinase of the panel (Homo sapiens, UniProt Q13237)
[3] = biological target: each individual kinase of the panel (Homo sapiens, UniProt P45983)
[4] = biological target: each individual kinase of the panel (Homo sapiens, UniProt P21709)
[5] = biological target: each individual kinase of the panel (Homo sapiens, UniProt Q9UL54)
[6] = biological target: each individual kinase of the panel (Homo sapiens, UniProt Q8TDX7)
[7] = biological target: each individual kinase of the panel (Homo sapiens, UniProt P52333)
[8] = biological target: each individual kinase of the panel (Homo sapiens, UniProt Q96PF2)
[9] = biological target: each individual kinase of the panel (Homo sapiens, UniProt P21802, N549H)
[10] = biological target: each individual kinase of the panel (Homo sapiens, UniProt O15146)
[11] = biological target: each individual kinase of the panel (Homo sapiens, UniProt P45984)
[12] = biological target: each individual kinase of the panel (Homo sapiens, UniProt Q9UIK4)
[13] = biological target: each individual kinase of the panel (Homo sapiens, UniProt Q13555)
[14] = biological target: each individual kinase of the panel (Homo sapiens, UniProt Q9H2G2)
[15] = biological target: each individual kinase of the panel (Homo sapiens, UniProt P00519, T315I)
[16] = biological target: each individual kinase of the panel (Homo sapiens, UniProt Q8TF76)
[17] = biological target: each individual kinase of the panel (Homo sapiens, UniProt P29323)
[18] = biological target: each individual kinase of the panel (Mus musculus, UniProt P47809)
[19] = biological target: each individual kinase of the panel (Homo sapiens, UniProt P36896)
[20] = biological target: each individual kinase of the panel (Homo sapiens, UniProt Q9Y243)
[21] = biological target: each individual kinase of the panel (Homo sapiens, UniProt Q86UE8)
[22] = biological target: each individual kinase of the panel (Homo sapiens, UniProt Q9P0L2)
[23] = biological target: each individual kinase of the panel (Homo sapiens, UniProt P54753)
[24] = biological target: each individual kinase of the panel (Homo sapiens, UniProt P51617)
[25] = biological target: each individual kinase of the panel (Homo sapiens, UniProt P53355)
[26] = biological target: each individual kinase of the panel (Homo sapiens, UniProt P78362)
[27] = biological target: each individual kinase of the panel (Homo sapiens, UniProt Q8IWQ3)
[28] = biological target: each individual kinase of the panel (Homo sapiens, UniProt O15264)
[29] = biological target: each individual kinase of the panel (Homo sapiens, UniProt O14920)
[30] = biological target: each individual kinase of the panel (Homo sapiens, UniProt P49840)
[31] = biological target: each individual kinase of the panel (Homo sapiens, UniProt P54764)
each individual kinase of the panel (Homo sapiens, UniProt P54764), sequence (P54764 20-986 limits assumed): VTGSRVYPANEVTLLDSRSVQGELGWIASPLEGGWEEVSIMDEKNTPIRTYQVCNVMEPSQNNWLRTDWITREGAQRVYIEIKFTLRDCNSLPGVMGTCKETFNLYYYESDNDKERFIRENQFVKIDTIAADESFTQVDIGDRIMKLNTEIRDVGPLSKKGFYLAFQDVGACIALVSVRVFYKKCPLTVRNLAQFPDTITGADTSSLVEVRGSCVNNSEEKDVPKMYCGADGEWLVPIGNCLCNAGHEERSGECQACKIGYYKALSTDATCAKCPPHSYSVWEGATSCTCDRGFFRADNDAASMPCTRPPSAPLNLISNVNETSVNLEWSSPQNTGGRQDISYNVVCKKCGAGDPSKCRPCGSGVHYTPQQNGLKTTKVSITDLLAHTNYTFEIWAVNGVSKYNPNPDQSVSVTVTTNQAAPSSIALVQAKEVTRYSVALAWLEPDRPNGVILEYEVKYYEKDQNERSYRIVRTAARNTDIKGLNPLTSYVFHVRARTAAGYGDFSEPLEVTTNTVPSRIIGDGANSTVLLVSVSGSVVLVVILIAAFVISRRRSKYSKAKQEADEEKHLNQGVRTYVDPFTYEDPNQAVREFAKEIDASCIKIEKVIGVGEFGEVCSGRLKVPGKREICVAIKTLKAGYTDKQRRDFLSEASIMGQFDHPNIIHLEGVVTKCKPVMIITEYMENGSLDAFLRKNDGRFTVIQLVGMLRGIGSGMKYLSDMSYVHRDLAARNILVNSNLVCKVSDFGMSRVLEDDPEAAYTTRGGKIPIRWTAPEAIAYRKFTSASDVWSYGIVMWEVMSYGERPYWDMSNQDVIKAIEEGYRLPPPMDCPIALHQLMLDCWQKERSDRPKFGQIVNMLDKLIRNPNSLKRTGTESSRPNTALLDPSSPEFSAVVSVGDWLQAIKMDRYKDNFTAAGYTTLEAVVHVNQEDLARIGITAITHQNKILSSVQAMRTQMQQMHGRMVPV

each individual kinase of the panel (Homo sapiens, UniProt P05771), sequence (P05771 2-671 limits assumed): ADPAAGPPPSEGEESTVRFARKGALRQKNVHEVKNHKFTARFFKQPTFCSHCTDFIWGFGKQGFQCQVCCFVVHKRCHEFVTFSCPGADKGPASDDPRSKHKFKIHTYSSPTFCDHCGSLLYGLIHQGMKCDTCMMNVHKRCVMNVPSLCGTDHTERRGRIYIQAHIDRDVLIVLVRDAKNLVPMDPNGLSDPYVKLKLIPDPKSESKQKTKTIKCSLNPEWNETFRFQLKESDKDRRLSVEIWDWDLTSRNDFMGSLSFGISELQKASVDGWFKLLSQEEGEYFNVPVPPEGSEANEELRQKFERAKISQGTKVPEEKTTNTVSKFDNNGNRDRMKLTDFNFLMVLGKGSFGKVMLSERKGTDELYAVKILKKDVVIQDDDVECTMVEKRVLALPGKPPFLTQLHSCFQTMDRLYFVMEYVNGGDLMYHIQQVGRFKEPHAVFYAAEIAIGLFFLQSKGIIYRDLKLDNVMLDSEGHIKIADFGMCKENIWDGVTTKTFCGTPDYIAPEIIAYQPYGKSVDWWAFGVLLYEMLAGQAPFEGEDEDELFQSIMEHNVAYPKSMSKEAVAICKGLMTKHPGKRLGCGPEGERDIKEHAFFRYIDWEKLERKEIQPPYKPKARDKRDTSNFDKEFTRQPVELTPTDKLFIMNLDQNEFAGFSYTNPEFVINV
each individual kinase of the panel (Homo sapiens, UniProt P54753), sequence (P54753 34-998 limits assumed): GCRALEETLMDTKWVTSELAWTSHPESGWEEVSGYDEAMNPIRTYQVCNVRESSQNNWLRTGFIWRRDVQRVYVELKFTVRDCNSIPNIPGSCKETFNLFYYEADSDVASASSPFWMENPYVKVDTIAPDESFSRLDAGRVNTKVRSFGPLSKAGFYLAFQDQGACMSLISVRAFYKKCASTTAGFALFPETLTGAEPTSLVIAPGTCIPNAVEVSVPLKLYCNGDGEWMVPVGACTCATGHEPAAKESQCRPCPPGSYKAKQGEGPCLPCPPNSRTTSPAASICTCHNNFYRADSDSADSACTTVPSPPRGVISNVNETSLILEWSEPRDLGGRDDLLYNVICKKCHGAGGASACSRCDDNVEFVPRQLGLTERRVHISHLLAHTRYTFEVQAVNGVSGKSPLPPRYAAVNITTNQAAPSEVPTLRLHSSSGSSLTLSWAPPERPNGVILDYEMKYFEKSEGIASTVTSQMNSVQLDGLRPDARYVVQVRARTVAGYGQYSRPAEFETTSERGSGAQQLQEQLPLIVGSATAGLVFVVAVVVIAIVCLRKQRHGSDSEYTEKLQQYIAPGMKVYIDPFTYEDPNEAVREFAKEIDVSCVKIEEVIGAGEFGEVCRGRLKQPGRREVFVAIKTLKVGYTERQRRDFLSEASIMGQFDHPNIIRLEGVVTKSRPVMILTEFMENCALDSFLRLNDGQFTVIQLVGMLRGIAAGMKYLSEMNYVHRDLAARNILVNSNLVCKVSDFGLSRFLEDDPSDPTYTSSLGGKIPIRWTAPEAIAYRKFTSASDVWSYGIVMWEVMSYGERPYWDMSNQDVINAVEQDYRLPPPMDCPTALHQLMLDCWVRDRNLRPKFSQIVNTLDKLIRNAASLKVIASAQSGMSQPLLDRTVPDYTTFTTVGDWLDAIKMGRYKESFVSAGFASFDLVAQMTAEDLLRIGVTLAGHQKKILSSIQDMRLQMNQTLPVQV
each individual kinase of the panel (Homo sapiens, UniProt O15146), sequence (O15146 24-869 limits assumed): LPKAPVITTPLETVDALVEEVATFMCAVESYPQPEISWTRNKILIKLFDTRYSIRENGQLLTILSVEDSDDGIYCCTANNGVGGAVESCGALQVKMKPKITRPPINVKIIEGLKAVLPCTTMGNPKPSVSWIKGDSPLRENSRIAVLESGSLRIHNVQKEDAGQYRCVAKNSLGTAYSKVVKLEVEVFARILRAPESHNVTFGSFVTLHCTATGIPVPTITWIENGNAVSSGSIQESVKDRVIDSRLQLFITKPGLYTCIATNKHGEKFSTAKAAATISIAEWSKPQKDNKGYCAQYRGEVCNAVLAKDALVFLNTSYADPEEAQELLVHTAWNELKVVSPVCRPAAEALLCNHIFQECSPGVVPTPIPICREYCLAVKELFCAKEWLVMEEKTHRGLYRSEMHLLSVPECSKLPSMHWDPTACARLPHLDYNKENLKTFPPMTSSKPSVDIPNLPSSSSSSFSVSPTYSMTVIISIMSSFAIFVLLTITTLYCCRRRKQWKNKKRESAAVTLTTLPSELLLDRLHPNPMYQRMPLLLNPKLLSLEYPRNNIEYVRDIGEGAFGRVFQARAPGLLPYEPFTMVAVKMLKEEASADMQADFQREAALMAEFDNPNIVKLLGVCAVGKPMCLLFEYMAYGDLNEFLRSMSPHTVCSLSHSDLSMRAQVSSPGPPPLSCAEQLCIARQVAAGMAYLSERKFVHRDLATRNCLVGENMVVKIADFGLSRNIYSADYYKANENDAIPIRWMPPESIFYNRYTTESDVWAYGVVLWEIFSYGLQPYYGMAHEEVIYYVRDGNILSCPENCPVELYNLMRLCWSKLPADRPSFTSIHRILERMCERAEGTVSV
each individual kinase of the panel (Homo sapiens, UniProt Q9Y243), sequence (Q9Y243 2-479 limits assumed): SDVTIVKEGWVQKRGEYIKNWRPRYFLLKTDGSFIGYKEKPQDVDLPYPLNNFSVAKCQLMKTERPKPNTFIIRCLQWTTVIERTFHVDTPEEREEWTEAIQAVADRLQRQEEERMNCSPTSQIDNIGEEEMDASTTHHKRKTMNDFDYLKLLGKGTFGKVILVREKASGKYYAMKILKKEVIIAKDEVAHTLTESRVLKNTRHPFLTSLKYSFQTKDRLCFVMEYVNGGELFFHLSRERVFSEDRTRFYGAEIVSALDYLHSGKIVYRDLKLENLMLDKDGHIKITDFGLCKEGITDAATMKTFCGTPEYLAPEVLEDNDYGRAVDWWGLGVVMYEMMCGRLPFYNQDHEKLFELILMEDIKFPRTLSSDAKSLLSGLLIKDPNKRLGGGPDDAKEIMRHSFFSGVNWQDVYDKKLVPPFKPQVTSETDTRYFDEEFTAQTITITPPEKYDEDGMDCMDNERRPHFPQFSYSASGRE
each individual kinase of the panel (Homo sapiens, UniProt P29323), sequence (P29323 19-1055 limits assumed): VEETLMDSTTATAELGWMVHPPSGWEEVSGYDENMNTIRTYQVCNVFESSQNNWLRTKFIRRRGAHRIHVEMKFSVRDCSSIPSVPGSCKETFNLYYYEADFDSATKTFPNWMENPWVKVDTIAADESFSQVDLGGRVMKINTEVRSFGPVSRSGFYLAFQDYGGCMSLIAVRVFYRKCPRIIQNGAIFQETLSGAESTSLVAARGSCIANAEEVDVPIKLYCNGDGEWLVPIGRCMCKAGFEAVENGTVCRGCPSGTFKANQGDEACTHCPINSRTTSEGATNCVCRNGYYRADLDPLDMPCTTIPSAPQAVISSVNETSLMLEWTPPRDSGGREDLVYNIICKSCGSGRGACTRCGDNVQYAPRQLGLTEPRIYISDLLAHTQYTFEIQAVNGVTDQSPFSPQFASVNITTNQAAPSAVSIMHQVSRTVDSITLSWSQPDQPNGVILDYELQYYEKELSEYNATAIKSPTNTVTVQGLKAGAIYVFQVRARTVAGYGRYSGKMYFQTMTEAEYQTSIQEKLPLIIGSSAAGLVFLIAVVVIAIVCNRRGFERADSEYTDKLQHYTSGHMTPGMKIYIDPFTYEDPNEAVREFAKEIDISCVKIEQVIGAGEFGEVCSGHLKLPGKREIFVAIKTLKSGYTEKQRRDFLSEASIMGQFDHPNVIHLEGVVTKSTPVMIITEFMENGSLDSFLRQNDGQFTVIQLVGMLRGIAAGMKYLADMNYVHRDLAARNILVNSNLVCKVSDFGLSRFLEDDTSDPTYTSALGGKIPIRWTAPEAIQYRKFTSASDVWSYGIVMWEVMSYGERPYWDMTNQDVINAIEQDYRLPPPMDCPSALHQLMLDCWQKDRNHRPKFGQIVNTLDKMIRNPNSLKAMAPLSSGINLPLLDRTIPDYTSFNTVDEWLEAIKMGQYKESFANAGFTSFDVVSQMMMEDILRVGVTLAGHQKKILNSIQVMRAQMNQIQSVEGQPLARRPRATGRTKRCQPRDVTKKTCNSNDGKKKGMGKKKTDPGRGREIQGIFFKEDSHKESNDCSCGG

C#Cc1cccc(Nc2nc3cc(C(=O)O)ccc3c3cncnc23)c1 [drawing 1135]
PRKCB1 percentage of activity [1]: 0%
PRKG2 percentage of activity [2]: 2%
JNK1A1 percentage of activity [3]: −9%
EPHA1 percentage of activity [4]: −6%
TAO2 percentage of activity [5]: 3%
NEK7 percentage of activity [6]: −14%
JAK3 percentage of activity [7]: 8%
TSSK2 percentage of activity [8]: −9%
FGFR2 (N549H) percentage of activity [9]: 4%
MUSK percentage of activity [10]: −6%
JNK2A2 percentage of activity [11]: −7%
DAPK2 percentage of activity [12]: 91%
CAMK2G percentage of activity [13]: 36%
SLK percentage of activity [14]: −15%
ABL1(T3151) percentage of activity [15]: −7%
GSG2 percentage of activity [16]: 4%
EPHB2 percentage of activity [17]: 13%
MKK4(m) percentage of activity [18]: −2%
ALK4 percentage of activity [19]: −15%
AKT3 percentage of activity [20]: 0%
TLK2 percentage of activity [21]: 8%
MARK1 percentage of activity [22]: 0%
EPHB3 percentage of activity [23]: −36%
IRAK1 percentage of activity [24]: 4%
DAPK1 percentage of activity [25]: 58%
SRPK2 percentage of activity [26]: 36%
BRSK2 percentage of activity [27]: 7%
p38-delta percentage of activity [28]: −1%
IKK beta percentage of activity [29]: 5%
GSK3A percentage of activity [30]: 51%
EPHA4 percentage of activity [31]: −3%
